Test results: patent publication US20220324833A1, “PROCESS FOR PREPARATION OF 2-HYDROXY-6-((2-(1-ISOPROPYL-1H-PYRAZOL-5-YL)PYRIDIN-3-YL)METHOXY)BENZALDEHYDE” (Global Blood Therapeutics, Inc., priority 2020, published 2022)

Test: Approximate solubility at ambient temperature
Assay type: physicochemical
Description: Approximate solubility values were measured for the as-received material at ambient temperature. […] The approximate solubility values were considered in the design of form screen experiments.

**Q.** With `CC(C)n1nccc1-c1ncccc1CO` [compound (3)] as the compound, how does the approximate solubility (MTBE, toluene, water, and select solvent mixtures) read?
**A.** Its approximate solubility is “Limited to intermediate solubility”.

**Q.** What about the approximate solubility (heptane) of the same compound?
**A.** Its approximate solubility is “low solubility”.

**Q.** What about the approximate solubility (most of the organic solvents tested) of the same compound?
**A.** Its approximate solubility is “high solubility”.
